Source: patent US20150037257A1, “COMPOSITIONS AND METHODS FOR HIGH-THROUGHPUT SCREENING IN SKIN FIBROBLASTS WITH AN ALPHA-SYNUCLEIN TRIPLICATION” (priority 2011, published 2015)

How the values were obtained:
Assay type in all cases: cell-based, human
control fibroblasts [1] = assay: Dose-response test of control fibroblasts with PQ (cell death); settings: 300 uM PQ, 48 hrs
Description: (§1) Cell viability was assessed using the CytoTox-ONE Homogeneous Membrane integrity Assay kit (Cat. No 07890, Promega, Madison, Wis.), which is a fluorescent measure of lactate dehydrogenase (LDH) released from cells with a damaged membrane by conversion of resazurin into resorufin. The assay was performed in a 96-well format according to the manufacturers' instructions. Briefly, 10,000 cells/well of control cells and 12,500 cells/well of SNCA-Tri fibroblasts were used for paraquat (PQ) exposure experiments; 12,500 cells/well were used in siRNA knockout experiments. Cell number was measured using WST-1 proliferation reagent (Roche, Indianapolis, Ind.) in a parallel plate.
(§2) Cells were exposed to freshly prepared PQ (N,N′-dimethyl-4,4′-bipyridinium dichloride) (Sigma, M2254) at 300 uM final concentration in culture media for 48 hours without media change prior to analysis.

control fibroblasts [2] = assay: Cell viability: LDH release (CytoTox-ONE) after paraquat exposure; settings: controls, 300 uM PQ, 48 hrs
Description: as §1, §2

SNCA-Tri fibroblasts [3] = assay: Cell viability: LDH release (CytoTox-ONE) after paraquat exposure / siRNA knockdown; settings: 300 uM PQ, 48 hrs
Description: as §1, §2
(§3) The sequence of SNCA1 siRNA were used after the method of Fountaine et al, 2008. Custom siRNA (Dharmacon, Lafayette, Colo.) at a concentration of 75 nM (scrambled or α-syn targeted siRNA, SNCA1) was transfected at 90% cell confluency using […] Lipofectamine™ 2000 (Invitrogen) according to the manufacturer's instruction. Transfection efficiency was tested to be >90% with siGLO Cyclophilin B control siRNA (Dharmacon) in control fibroblasts.

control fibroblasts [4] = assay: Cellular ATP levels (ATPlite) after paraquat exposure; settings: controls, 300 uM PQ, 48 hrs
Description: (§4) Cellular adenosine triphosphate (ATP) levels were measured using the ATPlite kit (Cat. No. 6016943, Perkin Elmer, Waltham, Mass.) based on the reaction of ATP with added lucifcrase and D-luciferin, according to the manufacturer's instruction. ATP synthesis assays were performed on digitonin-treated fibroblasts. Briefly, for paraquat (PQ) exposure, cells were plated (6,000 cells/well in control cells and 7,500 cells/well in SNCA-Tri cells) for 24 hours prior to exposure to PQ.
as §2

SNCA-Tri fibroblasts [5] = assay: Cellular ATP levels (ATPlite) after paraquat exposure / siRNA knockdown; settings: 300 uM PQ, 48 hrs
Description: as §4, §2, §3

control fibroblasts [6] = assay: Mitochondrial membrane potential (TMRM) after paraquat exposure; settings: controls, 300 uM PQ, 48 hrs
Description: (§5) Fibroblasts were plated in 96-well plates (6,000 cells/well in the control and 7,500 cells/well in SNCA-Tri cells) and were used for paraquat (PQ) exposure experiments. After 24 hours, cells were changed to galactose medium and cultured for another 24 hours. The mitochondrial membrane potential was measured using the fluorescent dye tetramethylrhodamine methyl ester (TMRM) (Invitrogen) at the final concentration of 150 nM. Cells were incubated for 5 minutes at 37° C. and then washed with phosphate buffered saline (PBS). To remove the plasma membrane contribution from the TMRM fluorescence, each assay was performed in parallel with 10 uM carbonyl cyanide 3-chlorophenylhydrazone (CCCP) (Sigma, St Louis, Mo.), which collapses the mitochondrial membrane potential. All data were expressed as the total TMRM fluorescence minus the CCCP-treated TMRM fluorescence. Cell number was measured using WST-1 proliferation reagent in a parallel plate, according to the manufacturer's instruction. All measurements were performed on a TECAN GENios.
as §2

SNCA-Tri fibroblasts [7] = assay: Mitochondrial membrane potential (TMRM) after paraquat exposure / siRNA knockdown; settings: 300 uM PQ, 48 hrs
Description: as §5, §2, §3

[8] = tested on: α-syn mRNA expression in SNCA-Tri fibroblasts; assay: α-syn mRNA expression by qPCR after paraquat exposure
Description: as §2
(§6) Total RNA was extracted from fibroblasts using TRIzol® (Invitrogen). cDNA from 0.5 ug total RNA was synthesized by reverse transcriptase (iScript cDNA synthesis kit, BioRad, Hercules, Calif.). Primer sequences of SNCA are SNCA-F: AGTTGTGGCTGCTGCTGAG (SEQ ID NO:1) and SNCA-R: […] (SEQ ID NO:2) and of beta-actin are HuActin-F: […] (SEQ ID NO:3) and HuActin-R: GCATTTGCGGTGGACGAT (SEQ ID NO:4). The PCR products of SNCA and beta-actin (as internal control) were amplified using the SYBR Green PCR Master Mix (Applied Biosystems, Carlsbad, Calif.). Amplification of the PCR products was quantitatively measured by the ABI 7000 Sequence Detection System (Applied Biosystems). 2^−ΔΔCt method was used in all quantitative PCR analyses.

[9] = tested on: α-syn mRNA expression in control fibroblasts; assay: as above; settings: controls, vs naive expression
Description: as §2, §6

SMILES: C[n+]1ccc(-c2cc[n+](C)cc2)cc1.[Cl-].[Cl-] [PQ, N,N′-dimethyl-4,4′-bipyridinium dichloride]
- cell death (control fibroblasts [1]): about 25%
- LDH release, % change untreated vs PQ exposed (control fibroblasts [2]): 27%
- LDH release change, fold difference SNCA-Tri vs controls (SNCA-Tri fibroblasts [3]; 42% vs 27%): 1.6 fold
- increase of LDH release in SNCA-Tri compared to controls after PQ exposure (SNCA-Tri fibroblasts [3]; SNCA-Tri vs controls): 46%
- LDH release, % change (increase) untreated vs PQ exposed (SNCA-Tri fibroblasts [3]; SNCA-Tri): 42%
- Cellular ATP decrease, untreated vs PQ exposed (control fibroblasts [4]): 33%
- Cellular ATP change, fold change SNCA-Tri vs controls (SNCA-Tri fibroblasts [5]; 56% vs 33%): 1.7 fold
- decrease of cellular ATP in SNCA-Tri compared to controls after PQ exposure (SNCA-Tri fibroblasts [5]; SNCA-Tri vs controls): 59%
- Cellular ATP decrease, untreated vs PQ exposed (SNCA-Tri fibroblasts [5]; SNCA-Tri): 56%
- Mitochondrial membrane potential decrease, untreated vs PQ exposed (control fibroblasts [6]): 40%
- Mitochondrial membrane potential change, fold change SNCA-Tri vs controls (SNCA-Tri fibroblasts [7]; 61% vs 40%): 1.5 fold
- reduction of mitochondrial membrane potential in SNCA-Tri compared to controls after PQ exposure (SNCA-Tri fibroblasts [7]; SNCA-Tri vs controls): 51%
- Mitochondrial membrane potential decrease, untreated vs PQ exposed (SNCA-Tri fibroblasts [7]; SNCA-Tri): 61%
- increase of α-syn mRNA expression after PQ exposure ([8]; SNCA-Tri, vs naive expression levels): 7.5 fold
- α-syn mRNA, fold difference SNCA-Tri over control fibroblasts after PQ treatment ([8]; after PQ treatment): 3.2 fold
- increase of α-syn mRNA expression after PQ exposure [9]: 2.6 fold
